According to patent publication US20090263521A1, “COMPOSITION FOR THE TREATMENT OF CANCERS AND INHIBITION OF METASTASIS CONTAINING EXTRACTS OR FRACTIONS OF THE MAGNOLIA OBOVATA” (KOREA RESEARCH INSTITUTE OF BIOSCIENCE AND BIOTECHNOLOGY, priority 2008, published 2009):

Tested on: human colon cancer cell line SW620
Assay: In vivo anticancer effect, SW620 transplanted nude mice
Design: species or system BALB/c nude mice
Protocol: Female SPF BALB/c nude mice purchased from Charles River, Japan, were used as test animals. They were at 6 weeks and weighed 14-17 g. Before being used for experiments, the test animals were adapted at least one week in a clean animal lab. Temperature of the animal lab was 21±2° C. and humidity was set at 55±5%. Light/dark cycle was automatically regulated as 12/12. The solid feeds for the test animals were radiation sterilized products (Polas International, Seoul, Korea). Drinking water was sterilized by autoclave. Feeds and drinking water were given freely.
For the cancer cell line, human colon cancer cell line SW620 purchased from ATCC, USA and stored at Korean Research Institute of Bioscience and Biotechnology was used. […] On the final day of culture, every cell was collected and counted and the final cell concentration was regulated to 1×10^7 cells/ml by adding saline.
SW620 cancer cells were hypodermically injected in the right armpit in-between the shoulder and the wall of chest by 0.3 ml at the concentration of 3×10^6 cells/mouse. […] Weight changes of the test animals were measured three times per week. Tumor volume was measured 7 times from day 5 to day 20 in every test animal. Precisely, the tumor volume was measured by measuring three dimensions of the tumor using Vernier Caliper and then calculated by the following formula: […]

weight loss (adriamycin administered positive control, p<0.001): 13.1%
SMILES: COc1cccc2c1C(=O)c1c(O)c3c(c(O)c1C2=O)C[C@@](O)(C(=O)CO)C[C@@H]3O[C@H]1C[C@H](N)[C@H](O)[C@H](C)O1 [adriamycin]
tumor growth inhibition (positive control, P<0.001): 58.0%
